The values that follow are results of earlier work, collected in patent US20260356814A1, “INDOLINE DERIVATIVES AS SEROTONERGIC AGENTS USEFUL FOR THE TREATMENT OF DISORDERS RELATED THERETO” (MINDSET PHARMA INC., priority 2022, published 2026).

Where two headings read alike, the source gives them in different places.

The target of one series is human 5-HT2A receptor (Homo sapiens, UniProt P28223). To be noted: cited from earlier work.
For series [1] the following is noted: controlled setting; cited from earlier work.
The subject of series [2] is brain's default mode network. Particulars: intravenously administered; cited from earlier work.
For the next series, the system named is tobacco use disorder. To be noted: cited from earlier work.
Series [3] has as its system subpopulations of low attentive and low motivated rats. Particulars: rat, in vivo; cited from earlier work.
The target of series [4] is 5-HT2A and 5-HT2C receptors. Particulars: compared with LSD; cited from earlier work.
The test system of series [5] is depression and anxiety associated with life-threatening disease. To be noted: in a supportive setting; cited from earlier work.
In the next series the test system is 5-HT2 receptor. Particulars: daily administration; cited from earlier work.
The subject of series [6] is absolute metabolic rate of glucose in frontal and other cortical regions, striatal and limbic subcortical structures. To be noted: 15 or 20 mg orally, healthy participants; cited from earlier work.

human 5-HT2A receptor, sequence (P28223 whole entry): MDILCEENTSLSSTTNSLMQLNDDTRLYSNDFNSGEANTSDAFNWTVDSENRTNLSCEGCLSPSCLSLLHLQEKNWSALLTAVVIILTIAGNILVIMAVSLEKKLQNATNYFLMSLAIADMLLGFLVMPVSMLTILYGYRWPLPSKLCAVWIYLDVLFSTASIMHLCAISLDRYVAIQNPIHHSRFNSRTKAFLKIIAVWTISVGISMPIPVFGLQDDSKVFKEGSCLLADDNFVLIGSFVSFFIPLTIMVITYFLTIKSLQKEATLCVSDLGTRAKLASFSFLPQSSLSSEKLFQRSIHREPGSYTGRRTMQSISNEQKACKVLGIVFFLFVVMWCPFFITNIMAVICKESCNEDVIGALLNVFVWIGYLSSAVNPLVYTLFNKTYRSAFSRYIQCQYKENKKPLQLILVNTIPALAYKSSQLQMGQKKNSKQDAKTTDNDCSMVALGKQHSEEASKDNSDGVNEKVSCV

Take `CN(C)CCc1c[nH]c2cccc(OP(=O)(O)O)c12` [Psilocybin, 4-phosphoryloxy-N,N-dimethyltrypatmine]: the “affinity for 5-HT2A, human versus rat receptor” value at human 5-HT2A receptor is “stronger affinity for the human 5-HT2A receptor than for the rat receptor”. Moreover, the headache entry in series [1] was “transient, delayed headache, with incidence, duration, and severity increased in a dose-related manner”. In series [2], the “oscillatory power in areas of the brain's default mode network” value was “decreases in oscillatory power in areas of the brain's default mode network”. Besides, the abstinence rate in the series with tobacco use disorder (12 months follow-up) is 67%; with tobacco use disorder (six months follow-up), 80%. The “performance on 5 choice serial reaction time and progressive ratio tasks” value in [3] is “improved performance on 5 choice serial reaction time and progressive ratio tasks”. Also, the “K (i) for 5-HT2A and 5-HT2C relative to LSD” value in series [4] is “lower K (i) for both 5-HT2A and 5-HT2C receptors than LSD”. In series [5], the “anti-depressant and anxiolytic effects” value is “significant and sustained anti-depressant and anxiolytic effects”. For the same compound, in the series with 5-HT2 receptor, the “5-HT2 receptor density in rat brain” value is reported as “reduce 5-HT2 receptor density in rat brain”. The “absolute metabolic rate of glucose” value in series [6] was “increased absolute metabolic rate of glucose in frontal, and to a lesser extent in other, cortical regions as well as in striatal and limbic subcortical structures”.
